The values that follow are results of earlier work, collected in patent US6649645B1 (Pharmacia Corporation, priority 1998, dated 2003).

Data set [1] has as its system fibroblast growth factor-induced corneal angiogenesis. Conditions: rats; Masferrer et al. 1999.
For data set [2] the following is noted: Cynomolgus monkeys, orally for six weeks.
The mark [3] stands for this setting: mice, Milas et al., Cancer Res. 1990.

As to `Cc1ccc(-c2cc(C(F)(F)F)nn2-c2ccc(S(N)(=O)=O)cc2)cc1` [Celecoxib, Benzenesulfonamide, 4-(5-(4-methylphenyl)-3-(trifluoromethyl)-1H-pyrazol-1-yl)-], the “inhibition of fibroblast growth factor-induced corneal angiogenesis” value in data set [1] is listed as “potent inhibition”.
With `COc1ccc2c(c1)c(CC(=O)O)c(C)n2C(=O)c1ccc(Cl)cc1` [indomethacin], in the data set on tumor (setting [3]), the “tumor cure rate after radiotherapy” value is listed as “increases the tumor cure rate” and the “tumor growth delay after radiotherapy” value is listed as “prolongs tumor growth delay”. The “enhancement factor (tumor curability)” value with tumor (printed as 'radiation alone') was 1.26. The “enhancement factor (tumor growth delay)” value with tumor (radiation-indomethacin) is 1.4.
In the case of `CN1C(C(=O)Nc2ccccn2)=C(O)c2sc(Cl)cc2S1(=O)=O` [lornoxicam], the Toxicity in data set [2] is 1 to 2 mg/kg/day.
